From patent US11708368B2, “Crystal form of ethyl (S)-3-(8-bromo-1-methyl-6-(pyridin-2-yl)-4H-benzo[f]imidazo[1,2-a][1,4]diazepin-4-yl)propanoate hydrochloride” (JIANGSU NHWALUOKANG PHARMACEUTICAL RESEARCH AND DEVELOPMENT …, priority 2018, dated 2023)

Legend:
KM mice [1] = experiment: 2*ED50 anesthesia pharmacodynamics experiment in KM mice (induction time, duration, walking time); type: in vivo; conditions: n=20, dosage 2*ED50, tail vein injection in 5 seconds
Procedure: KM mice, half male and half female, 20 mice in each group. […] The time of loss of the righting reflex in mice (induction time), recovery time (duration) and walking time were recorded.

[2] = Long-term stability test (25° C., RH60%), change in degradation product CNS-7054; type: physicochemical; conditions: for Change in CNS-7054, Long-term experiment (25° C., RH60%): 6 months, after packaging, degradation product CNS-7054; for CNS-7054 increase, long-term experiment (25° C., RH60%): in 3 months, sulfonate of the benzodiazepine derivative
Procedure: (§1) The compound of Formula I prepared in the above examples were selected, and placed under the conditions of 40° C., RH75% and 25° C., RH60% for an accelerated stability test and a long-term stability test after packaging. The changes in the degradation product (CNS-7054) in these compounds in 6 months were observed, and the results are shown in Table 13 below.
(§2) In addition, a lyophilized preparation made of sulfonates according to the prior art were partially degraded into carboxylic acid (CNS-7054) and released alcohol in both the accelerated and long-term experiments.

[3] = Accelerated stability test (40° C., RH75%), change in degradation product CNS-7054; type: physicochemical; conditions: for Change in CNS-7054, Accelerated experiment (40° C., RH75%): 6 months, after packaging, degradation product CNS-7054; for CNS-7054 increase, accelerated experiment (40° C., RH75%): in 1 month, sulfonate of the benzodiazepine derivative
Procedure: as §1, §2

KM mice [4] = experiment: LD50 in KM mice by sequential method (death); type: in vivo; conditions: for TI (therapeutic index): KM mice, calculated through LD50 and ED50 values; for LD50 (95% confidence interval): male KM mice, tail vein injection in 5 seconds, death, sequential method
Procedure: (§3) Sequential method was used to determine the hypnotic ED50 and LD50 in KM mice for the hydrochloride of the benzodiazepine derivative. Healthy and qualified male KM mice were selected, n=10−20. The drug was injected through the tail vein at a constant rate in 5 seconds. After preliminary pre-test, the approximate dosage that may cause hypnosis (or death) of the animals was found as an intermediate dosage in the formal experiment. A group interval of 0.8 was used, and 2-3 dosage groups were set up and down respectively. The formal experiment started with the administration from the intermediate dosage. When the animal was narcotized (or died), the dosage was reduced by one dose. If the animal was not narcotized (or died), the dosage was increased by one until 3-4 repetitions occurred. The ED50 value and LD50 value were measured with the disappearance of righting reflex or death as indicators. The therapeutic index (TI index=[…]) was calculated through LD50 and ED50 values.

KM mice [5] = experiment: Hypnotic ED50 in KM mice by sequential method (disappearance of righting reflex); type: in vivo; conditions: male KM mice, tail vein injection in 5 seconds
Procedure: as §3

patients = conditions: Phase II clinical trial of ICU sedation; cited from earlier work

Structure (SMILES): COC(=O)CCC1N=C(c2ccccn2)c2cc(Br)ccc2-n2c(C)cnc21.O=S(=O)(O)c1ccccc1 (stereo not shown) [Positive control 1]
- Number of animals with duration time longer than 10 min (KM mice [1]): 9/20
- Number of animals with walking time longer than 1 min (KM mice [1]): 17/20
- Walking time (KM mice [1]): 514.95 ± 525.16 s
- duration time (recovery time) (KM mice [1]): 692.3 ± 399.15 s
- induction time (time of loss of the righting reflex) (KM mice [1]): 17.6 ± 1.93 s

Structure (SMILES): CCOC(=O)CCC1N=C(c2ccccn2)c2cc(Br)ccc2-n2c(C)cnc21.Cl (stereo not shown) [Ethyl, 4% alanine]
- Change in CNS-7054, Long-term experiment (25° C., RH60%) [2]: Not increased
- Change in CNS-7054, Accelerated experiment (40° C., RH75%) [3]: Increased by 0.01%

Structure (SMILES): CCOC(=O)CCC1N=C(c2ccccn2)c2cc(Br)ccc2-n2c(C)cnc21.O=S(=O)(O)c1ccccc1 (stereo not shown) [positive control 2]
- TI (therapeutic index) (KM mice [4]): 16.8
- LD50 (95% confidence interval) (KM mice [4]): 263.14 mg/kg
- ED50 (95% confidence interval) (KM mice [5]): 15.62 mg/kg

Structure (SMILES): CCOC(=O)CC[C@@H]1N=C(c2ccccn2)c2cc(Br)ccc2-n2c(C)cnc21.Cl [R is ethyl, hydrochloride, ethyl (S)-3-(8-bromo-1-methyl-6-(pyridin-2-yl)-4H-benzo[f]imidazo[1,2-a][1,4]diazepin-4-yl)propanoate hydrochloride]
- incidence of the animal anesthesia time of more than 10 minutes (KM mice [1]): 20%
- incidence of the animal walking time of more than 1 min (KM mice [1]): 15%

Structure (SMILES): COC(=O)CCC1N=C(c2ccccn2)c2cc(Br)ccc2-n2c(C)cnc21.Cl (stereo not shown) [Methyl, 4% glycine]
- Change in CNS-7054, Long-term experiment (25° C., RH60%) [2]: Not increased
- Change in CNS-7054, Accelerated experiment (40° C., RH75%) [3]: Increased by

Structure (SMILES): CCOC(=O)CCC1N=C(c2ccccn2)c2cc(Br)ccc2-n2c(C)cnc21.Cl (stereo not shown) [Ethyl, 1.7% glycine]
- Change in CNS-7054, Long-term experiment (25° C., RH60%) [2]: Not increased
- Change in CNS-7054, Accelerated experiment (40° C., RH75%) [3]: Not increased

Structure (SMILES): COC(=O)CC[C@@H]1N=C(c2ccccn2)c2cc(Br)ccc2-n2c(C)cnc21 [Remimazolam]
- hemodynamics of the patients after receiving the drug (patients): unstable
- patients with plasma concentration higher than the normal range (patients): 10%

Structure (SMILES): CCOC(=O)CCC1N=C(c2ccccn2)c2cc(Br)ccc2-n2c(C)cnc21.Cl (stereo not shown) [Ethyl, 5% alanine]
- Change in CNS-7054, Long-term experiment (25° C., RH60%) [2]: Not increased
- Change in CNS-7054, Accelerated experiment (40° C., RH75%) [3]: Increased by 0.01%

Structure (SMILES): CCOC(=O)CCC1N=C(c2ccccn2)c2cc(Br)ccc2-n2c(C)cnc21.Cl (stereo not shown) [Ethyl, 4.5% glycine]
- Change in CNS-7054, Long-term experiment (25° C., RH60%) [2]: Not increased
- Change in CNS-7054, Accelerated experiment (40° C., RH75%) [3]: Not increased

Structure (SMILES): CCOC(=O)CCC1N=C(c2ccccn2)c2cc(Br)ccc2-n2c(C)cnc21.Cl (stereo not shown) [Ethyl, 2.8% glycine]
- Change in CNS-7054, Long-term experiment (25° C., RH60%) [2]: Not increased
- Change in CNS-7054, Accelerated experiment (40° C., RH75%) [3]: Not increased

Structure (SMILES): CCOC(=O)CCC1N=C(c2ccccn2)c2cc(Br)ccc2-n2c(C)cnc21.O=S(=O)(O)c1ccccc1 (stereo not shown) [Positive control 2]
- Number of animals with duration time longer than 10 min (KM mice [1]): 7/20
- Number of animals with walking time longer than 1 min (KM mice [1]): 10/20
- Walking time (KM mice [1]): 192.9 ± 268.98 s
- duration time (recovery time) (KM mice [1]): 443.75 ± 247.86 s
- induction time (time of loss of the righting reflex) (KM mice [1]): 17.1 ± 2.00 s

Structure (SMILES): CCOC(=O)CCC1N=C(c2ccccn2)c2cc(Br)ccc2-n2c(C)cnc21.O=S(=O)(O)c1ccccc1 (stereo not shown)
- CNS-7054 increase, long-term experiment (25° C., RH60%) [2]: Increased by 0.03%
- CNS-7054 increase, accelerated experiment (40° C., RH75%) [3]: Increased by 0.05%

Structure (SMILES): COC(=O)CCC1N=C(c2ccccn2)c2cc(Br)ccc2-n2c(C)cnc21.O=S(=O)(O)c1ccccc1 (stereo not shown) [positive control 1]
- TI (therapeutic index) (KM mice [4]): 6.6
- LD50 (95% confidence interval) (KM mice [4]): 270.09 mg/kg
- ED50 (95% confidence interval) (KM mice [5]): 40.64 mg/kg

Structure (SMILES): COC(=O)CCC1N=C(c2ccccn2)c2cc(Br)ccc2-n2c(C)cnc21.Cl (stereo not shown) [Methyl, None]
- Change in CNS-7054, Accelerated experiment (40° C., RH75%) [3]: Not increased

Structure (SMILES): CCOC(=O)CCC1N=C(c2ccccn2)c2cc(Br)ccc2-n2c(C)cnc21.Cc1ccc(S(=O)(=O)O)cc1 (stereo not shown)
- CNS-7054 increase, long-term experiment (25° C., RH60%) [2]: Increased by 0.1%
- CNS-7054 increase, accelerated experiment (40° C., RH75%) [3]: Increased by 0.2%

Structure (SMILES): COC(=O)CCC1N=C(c2ccccn2)c2cc(Br)ccc2-n2c(C)cnc21.Cc1ccc(S(=O)(=O)O)cc1 (stereo not shown)
- CNS-7054 increase, long-term experiment (25° C., RH60%) [2]: Increased by 0.1%
- CNS-7054 increase, accelerated experiment (40° C., RH75%) [3]: Increased by 0.1%

Structure (SMILES): COC(=O)CC[C@@H]1N=C(c2ccccn2)c2cc(Br)ccc2-n2c(C)cnc21.O=S(=O)(O)c1ccccc1
- CNS-7054 increase, long-term experiment (25° C., RH60%) [2]: Increased by 0.04%
- CNS-7054 increase, accelerated experiment (40° C., RH75%) [3]: Increased by 0.07%

Structure (SMILES): CCOC(=O)CCC1N=C(c2ccccn2)c2cc(Br)ccc2-n2c(C)cnc21.Cl (stereo not shown) [Ethyl, None]
- Change in CNS-7054, Long-term experiment (25° C., RH60%) [2]: Not increased
- Change in CNS-7054, Accelerated experiment (40° C., RH75%) [3]: Not increased

Structure (SMILES): COC(=O)CCC1N=C(c2ccccn2)c2cc(Br)ccc2-n2c(C)cnc21.Cl (stereo not shown) [Methyl, 5% alanine]
- Change in CNS-7054, Long-term experiment (25° C., RH60%) [2]: Not increased
- Change in CNS-7054, Accelerated experiment (40° C., RH75%) [3]: Increased by 0.01%

Structure (SMILES): COC(=O)CCC1N=C(c2ccccn2)c2cc(Br)ccc2-n2c(C)cnc21.Cl (stereo not shown) [Methyl, 4% valine]
- Change in CNS-7054, Long-term experiment (25° C., RH60%) [2]: Not increased
- Change in CNS-7054, Accelerated experiment (40° C., RH75%) [3]: Increased by 0.01%

Structure (SMILES): COC(=O)CCC1N=C(c2ccccn2)c2cc(Br)ccc2-n2c(C)cnc21.Cl (stereo not shown) [Methyl, 2% glycine]
- Change in CNS-7054, Long-term experiment (25° C., RH60%) [2]: Not increased
- Change in CNS-7054, Accelerated experiment (40° C., RH75%) [3]: Not increased

Structure (SMILES): COC(=O)CCC1N=C(c2ccccn2)c2cc(Br)ccc2-n2c(C)cnc21.Cl (stereo not shown) [Methyl, 3% glycine]
- Change in CNS-7054, Long-term experiment (25° C., RH60%) [2]: Not increased
- Change in CNS-7054, Accelerated experiment (40° C., RH75%) [3]: Not increased

Structure (SMILES): CCOC(=O)CCC1N=C(c2ccccn2)c2cc(Br)ccc2-n2c(C)cnc21.Cl (stereo not shown) [Ethyl, 4% valine]
- Change in CNS-7054, Accelerated experiment (40° C., RH75%) [3]: Increased by 0.01%
